This assay has as its system patient with I253V in the TRAP1 ATPase domain. Briefly: Case Report 1: clinical response of a patient with I253V in the TRAP1 ATPase domain to supplementation. Format: in vivo, human. Particulars: single patient. Here is the method:
A person was referred to the inventors because of a failure-to-thrive and hypoglycemia. Additional problems included constipation, temperature instability, tachycardia, delayed gastric emptying (confirmed by Scintiscan), almost-daily pain (headaches, abdominal pain, leg cramps), chronic fatigue (sleeping up to 22 hours a day), anemia (requiring multiple transfusions), repetitive episodes of right arm dyskinesia (2 minutes each, twice a week), and neurodevelopmental issues (gross motor delay, auditory processing problem, and memory defects, but cognitive delay is only 6 months). […] Episodic dyskinesia later resolved with L-arginine supplementation. However, gastrointestinal dysfunction worsened, necessitating a gastrostomy tube, followed by a jejunostomy tube. […] Pertinent results of an extensive work-up include normal brain MR, normal video-EEG, severe free carnitine deficiency (<4 micromolar, normal >19; total carnitine 17), trace elevations on urine organic acids, respiratory alkalosis (hyperventilation), and hypoglycemia (even while receiving adequate jejunal feeds or parental nutrition). […] After finding the I253V in the TRAP1 ATPase domain, antioxidant therapy was intensified, and results are pending.

Turning to `N=C(N)NCCC[C@H](N)C(=O)O` [L-arginine], the “Episodic dyskinesia (repetitive episodes of right arm dyskinesia)” value is listed as “resolved”.
